Laboratory results as given in patent US20230227447A1, “BENZYLAMINE DERIVATIVES AS DDRS INHIBITORS” (CHIESI FARMACEUTICI S.P.A., priority 2020, published 2023).

Key:
DDR1 [1] = biological target: T1, DDR1 (Homo sapiens, UniProt Q08345); assay: DDR1 cell based assay (PathHunter U2OS DDR1 assay); design: host or cells: U2OS-DDR1; settings: U2OS-DDR1 cells, bovine Type II Collagen 20 μg/ml, luminescence
Description: The inhibition of DDR1 receptor activation by compounds was evaluated by PathHunter® U2OS DDR1 assay (Eurofins DiscoverX), according to the manufacturer's instructions. Briefly, U2OS-DDR1 cells were seeded in white 384-well plates at a density of 5000 cells/well and incubated for 2 hours at 37° C. and 5% CO2. Cells were then treated with compounds at different concentrations and incubated for 30 minutes, before stimulation with bovine Type II Collagen 20 μg/ml and incubation overnight at 37° C. and 5% CO2. PathHunter Detection Reagents were prepared according to the protocol provided by DiscoverX and 20 μl/well of this mix were added to each well. After incubating the plates for 1 hour at room temperature in the dark, luminescence signal was acquired with a plate reader. Raw data were normalized to vehicle control (0% for normalization) and positive control (100% for normalization; cells treated with 20 μg/ml collagen II) and IC50 parameters were calculated in GraphPad Prism 8.0 software, using sigmoidal dose-response curve fitting with variable slope.

DDR1 [2] = biological target: T1, DDR1; assay: DDR1 binding assay (LanthaScreen Europium Kinase Binding assay); design: purchased Carna Biosciences; settings: 5 nM DDR1, 20 nM Kinase Tracer 178, 1 hour at room temperature; Ki from IC50 by Cheng-Prusoff
Description: (§1) DDR1 and DDR2 binding assays were performed using Life Technologies LanthaScreen™ Europium Kinase Binding assay. The compounds were incubated with 5 nM DDR1 (Carna Biosciences) or 5 nM DDR2 (Life Technologies) for 1 hour at room temperature in white 384-well OptiPlate (PerkinElmer), containing 20 nM or 10 nM Kinase Tracer 178 respectively and 2 nM Europium labelled anti-GST antibody (Life Technologies) in assay buffer (50 mM HEPES pH 7.5, 10 mM MgCl2, 1 mM EGTA and 0.01% BRIJ35).
(§2) The ratio of fluorescence emission 665 nm/615 nm after excitation at 340 nm was obtained using the Tecan Spark 20M plate reader. IC50 values were determined in GraphPad Prism 7.0 software, using 4 parameter model: log(inhibitor) vs. response. IC50 values were converted in Ki using the Cheng-Prusoff equation (Ki=IC50/(1+[Tracer]/Kd).

DDR2 [3] = biological target: T2, DDR2 (Homo sapiens, UniProt Q16832); assay: DDR2 binding assay (LanthaScreen Europium Kinase Binding assay); design: purchased Life Technologies; settings: 5 nM DDR2, 10 nM Kinase Tracer 178, 1 hour at room temperature; Ki from IC50 by Cheng-Prusoff
T2 sequence (Q16832 22-855): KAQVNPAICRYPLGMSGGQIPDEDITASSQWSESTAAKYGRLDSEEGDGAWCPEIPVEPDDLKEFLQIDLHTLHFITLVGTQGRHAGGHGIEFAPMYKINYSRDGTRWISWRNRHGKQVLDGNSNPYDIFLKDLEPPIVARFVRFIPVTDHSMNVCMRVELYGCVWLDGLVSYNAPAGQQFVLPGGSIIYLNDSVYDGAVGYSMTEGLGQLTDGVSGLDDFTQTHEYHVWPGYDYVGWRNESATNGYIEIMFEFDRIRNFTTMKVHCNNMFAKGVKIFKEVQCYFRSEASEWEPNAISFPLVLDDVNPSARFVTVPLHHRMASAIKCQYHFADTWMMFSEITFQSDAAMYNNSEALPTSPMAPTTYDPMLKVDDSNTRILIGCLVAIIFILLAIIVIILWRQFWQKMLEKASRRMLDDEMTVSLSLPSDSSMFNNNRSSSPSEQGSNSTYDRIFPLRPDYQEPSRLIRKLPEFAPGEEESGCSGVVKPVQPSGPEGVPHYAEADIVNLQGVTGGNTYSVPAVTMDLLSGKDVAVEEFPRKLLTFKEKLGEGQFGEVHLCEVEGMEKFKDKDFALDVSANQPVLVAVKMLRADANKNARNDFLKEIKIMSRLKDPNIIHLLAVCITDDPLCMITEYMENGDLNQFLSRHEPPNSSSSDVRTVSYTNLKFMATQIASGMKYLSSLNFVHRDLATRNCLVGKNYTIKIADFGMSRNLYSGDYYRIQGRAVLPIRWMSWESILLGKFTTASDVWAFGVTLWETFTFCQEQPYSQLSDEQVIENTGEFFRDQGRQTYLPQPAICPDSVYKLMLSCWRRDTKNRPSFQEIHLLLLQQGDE
Description: as §1, §2

DDR2 [4] = biological target: T2, DDR2; assay: DDR2 cell based assay (phospho-ELISA in HEK293T-DDR2 recombinant cells); design: expressed in transfected cells; host or cells: HEK293T-DDR2 recombinant cells; settings: bovine Type II Collagen 50 μg/ml
Description: The inhibition of DDR2 phosphorylation by compounds was evaluated in HEK293T-DDR2 recombinant cells by phospho-ELISA assay. Briefly, HEK293T-DDR2 cells were seeded in poly-D-lysine-coated 24-well plates at a density of 250.000 cells/well and incubated for 1.5 hours at 37° C. and 5% CO2 in DMEM+10% FBS. After that, the medium was changed to serum-free DMEM and cells were incubated for 3 hours. Then. test compounds were added at different concentrations 30 minutes before stimulation with bovine Type II Collagen at 50 μg/ml for further 3 hours. For DDR2 phospho-ELISA assay (DuoSet IC Human Phospho-DDR2; R&D Systems), protein extracts were obtained by adding 60 μl/well of lysis buffer prepared according to the manufacturer's instructions. Protein concentration in the samples was determined by BCA assay and the levels of phospho-DDR2 were determined following R&D Systems indications. Raw data were normalized to maximal inhibition control (0% for normalization) and positive control (100% for normalization; cells treated with […] collagen II) and IC50 parameters were calculated in GraphPad Prism 8.0 software, using sigmoidal dose-response curve fitting with variable slope.

T1 sequence (Q08345 19-913): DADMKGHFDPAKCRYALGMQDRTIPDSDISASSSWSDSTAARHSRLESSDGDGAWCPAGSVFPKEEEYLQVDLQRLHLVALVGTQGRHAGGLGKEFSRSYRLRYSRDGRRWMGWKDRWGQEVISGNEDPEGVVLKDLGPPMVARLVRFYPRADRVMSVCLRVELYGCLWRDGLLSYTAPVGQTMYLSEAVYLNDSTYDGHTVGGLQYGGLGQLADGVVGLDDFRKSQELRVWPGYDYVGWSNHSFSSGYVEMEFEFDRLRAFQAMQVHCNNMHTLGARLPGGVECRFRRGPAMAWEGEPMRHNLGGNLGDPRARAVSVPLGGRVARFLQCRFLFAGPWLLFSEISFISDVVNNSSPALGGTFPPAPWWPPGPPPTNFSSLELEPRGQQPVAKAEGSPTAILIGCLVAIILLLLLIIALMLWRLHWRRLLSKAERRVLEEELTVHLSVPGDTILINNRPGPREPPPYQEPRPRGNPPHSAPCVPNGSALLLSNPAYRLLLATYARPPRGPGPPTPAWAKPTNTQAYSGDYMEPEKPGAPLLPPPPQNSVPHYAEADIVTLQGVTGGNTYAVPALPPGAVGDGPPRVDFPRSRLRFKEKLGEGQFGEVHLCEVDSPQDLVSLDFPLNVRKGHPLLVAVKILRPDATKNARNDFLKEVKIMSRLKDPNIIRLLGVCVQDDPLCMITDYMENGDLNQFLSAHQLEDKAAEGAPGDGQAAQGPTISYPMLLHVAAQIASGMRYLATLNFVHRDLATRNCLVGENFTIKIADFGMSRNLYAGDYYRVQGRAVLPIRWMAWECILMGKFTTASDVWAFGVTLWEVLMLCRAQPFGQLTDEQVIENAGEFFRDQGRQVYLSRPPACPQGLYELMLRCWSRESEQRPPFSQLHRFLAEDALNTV

IC50 (DDR1 [1])	Ki (DDR1 [2])	Ki (DDR2 [3])	IC50 (DDR2 [4])	Compound
< 10 nM	< 30 nM	< 30 nM	10 to 15 nM	Cc1cn(-c2cc(NC(=O)c3ccc(C)c(CNc4cncnc4)c3)cc(C(F)(F)F)c2)cn1 [Example 20, 4-methyl-N-(3-(4-methyl-1H-imidazol-1-yl)-5-(trifluoromethyl)phenyl)-3-((pyrimidin-5-ylamino)methyl)benzamide]
< 10 nM	< 30 nM	< 30 nM	< 10 nM	COc1ccc(NC(=O)c2ccc(C)c(CNc3cncnc3)c2)cc1C(F)(F)F [Example 31, N-(4-methoxy-3-(trifluoromethyl)phenyl)-4-methyl-3-((pyrimidin-5-ylamino)methyl)benzamide]
< 10 nM	< 30 nM	< 30 nM	< 10 nM	Cc1ccc(C(=O)Nc2cccc(C(F)(F)F)c2)cc1CNc1cncnc1 [Example 32, 4-methyl-3-((pyrimidin-5-ylamino)methyl)-N-(3-(trifluoromethyl)phenyl)benzamide]
< 10 nM	< 30 nM	< 30 nM	< 10 nM	Cc1ccc(C(=O)Nc2cccc(C(F)(F)F)c2)cc1CNc1cccnc1 [Example 34, 4-methyl-3-((pyridin-3-ylamino)methyl)-N-(3-(trifluoromethyl)phenyl)benzamide]
< 10 nM	< 30 nM	< 30 nM	< 10 nM	Cn1ccc(-c2cncc(NCc3cc(C(=O)Nc4cccc(OC(F)(F)F)c4)ccc3F)c2)n1 [Example 35, 4-fluoro-3-(((5-(1-methyl-1H-pyrazol-3-yl)pyridin-3-yl)amino)methyl)-N-(3-(trifluoromethoxy)phenyl)benzamide]
< 10 nM	< 30 nM	< 30 nM	10 to 15 nM	Cc1ccc(C(=O)Nc2cccc(OC(F)(F)F)c2)cc1CNc1cncnc1 [Example 37, 4-methyl-3-((pyrimidin-5-ylamino)methyl)-N-(3-(trifluoromethoxy)phenyl)benzamide]
< 10 nM	< 30 nM	< 30 nM	10 to 15 nM	O=C(Nc1cccc(OC(F)(F)F)c1)c1ccc(F)c(CNc2cnc3[nH]ccc3c2)c1 [Example 38, 3-(((1H-pyrrolo[2,3-b]pyridin-5-yl)amino)methyl)-4-fluoro-N-(3-(trifluoromethoxy)phenyl)benzamide]
